Literature values as cited in EP0268926A2, “Safened sorptive granular pesticidal resin compositions for controlling soil borne pests and process for the preparation thereof” (priority 1986, dated 1988).

Test system: rats
Details: technical pesticide

SMILES: CCOP(=S)(OCC)SCSCC [phorate, O,O-diethyl-S-(ethylthiomethyl)phosphorodithioate]
- acute oral LD50 value in rats: 1.6-3.7 mg technical/kg
